ChEMBL document CHEMBL1201862, “PubChem BioAssay data set” (2004)
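Tested at 5 concentrations; 48 h exposure; 96-well plates; endpoints linearly interpolated, else capped at highest concentration. The concentration for 50% growth inhibition is given as GI50.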 Calls of active or inactive are those of the source. Cut-off read from the data, not from the text of the source: active = GI50 up to about 1.1 µM and inactive = higher.

What was measured:
Test in all cases: DTP human tumour cell line panel, 48 h
SK-MEL-5 = test system: SK-MEL-5
CAKI-1 = test system: CAKI-1
DU-145 = test system: DU-145
HL-60 = test system: HL-60
SN12C = test system: SN12C
HCT-15 = test system: HCT-15
M14 = test system: M14
U-251 = test system: U-251
K562 = test system: K562
SNB-19 = test system: SNB-19
MDA-N = test system: MDA-N
HT-29 = test system: HT-29
786-0 = test system: 786-0
IGROV-1 = test system: IGROV-1
NCI-H522 = test system: NCI-H522
COLO 205 = test system: COLO 205
LOX IMVI = test system: LOX IMVI
RPMI-8226 = test system: RPMI-8226

| Structure (SMILES) | GI50 (SK-MEL-5) | GI50 (CAKI-1) | GI50 (DU-145) | GI50 (HL-60) | GI50 (SN12C) | GI50 (HCT-15) [µM] | GI50 (M14) | GI50 (U-251) | GI50 (K562) | GI50 (SNB-19) | GI50 (MDA-N) | GI50 (HT-29) | GI50 (786-0) | GI50 (IGROV-1) | GI50 (NCI-H522) | GI50 (COLO 205) | GI50 (LOX IMVI) | GI50 (RPMI-8226) |
| --- | --- | --- | --- | --- | --- | --- | --- | --- | --- | --- | --- | --- | --- | --- | --- | --- | --- | --- |
| Oc1c(CN2CCOCC2)ccc(CN2CCOCC2)c1O | 25.5 µM (inactive) | 52 µM (inactive) | 26.6 µM (inactive) | 3.8 µM (inactive) | 25.6 µM (inactive) | 34 | 22.9 µM (inactive) | 40.1 µM (inactive) | 34.3 µM (inactive) | 43.3 µM (inactive) | 50.2 µM (inactive) | 52.1 µM (inactive) | 37.5 µM (inactive) | 70.5 µM (inactive) | 29.6 µM (inactive) | 45.9 µM (inactive) | 39 µM (inactive) | 50.1 µM (inactive) |
| CCCCCCCCCCCCOCCCCCCCCC/C=C/c1ccc2c(c1)OCCOCCOCCOCCO2 | 15.5 µM (inactive) | 17.3 µM (inactive) | 33 µM (inactive) | 28.8 µM (inactive) | 23.6 µM (inactive) | 45.9 | 25.4 µM (inactive) | 22.8 µM (inactive) | 31.3 µM (inactive) | 33.3 µM (inactive) | 18.5 µM (inactive) | 20.7 µM (inactive) | 13.6 µM (inactive) | 21.3 µM (inactive) | 13.2 µM (inactive) | 18.9 µM (inactive) | 19.3 µM (inactive) | 17.7 µM (inactive) |
| CC1CN=C(Nc2ccccc2)S1 (stereo not drawn) | > 100 µM (inactive) | > 100 µM (inactive) | > 100 µM (inactive) | > 100 µM (inactive) | > 100 µM (inactive) | > 100 | > 100 µM (inactive) | > 100 µM (inactive) | > 100 µM (inactive) | > 100 µM (inactive) | > 100 µM (inactive) | > 100 µM (inactive) | > 100 µM (inactive) | > 100 µM (inactive) | > 100 µM (inactive) | > 100 µM (inactive) | > 100 µM (inactive) | > 100 µM (inactive) |
| Cc1ccc(N(C)S(=O)(=O)c2ccccc2)cc1 | 67.5 µM (inactive) | > 100 µM (inactive) | > 100 µM (inactive) | > 10 µM (inactive) | > 100 µM (inactive) | > 100 | > 100 µM (inactive) | > 100 µM (inactive) | 34.8 µM (inactive) | > 100 µM (inactive) | > 100 µM (inactive) | > 100 µM (inactive) | > 100 µM (inactive) | > 100 µM (inactive) | > 100 µM (inactive) | > 100 µM (inactive) | > 100 µM (inactive) | 59.8 µM (inactive) |
| C=C1CC2(C[C@@H](c3ccccc3)O[C@@H](c3ccccc3)C2)OC1=O (stereo partly drawn) | 3.01 µM (inactive) | 1.97 µM (inactive) | 9.12 µM (inactive) | 0.44 µM (active) | 3.01 µM (inactive) | 2.54 | 1.77 µM (inactive) | 15.4 µM (inactive) | 2.22 µM (inactive) | 15.2 µM (inactive) | 2.28 µM (inactive) | 2.92 µM (inactive) | 2.59 µM (inactive) | 2.71 µM (inactive) | 1.48 µM (inactive) | 2.03 µM (inactive) | 1.25 µM (inactive) | 0.341 µM (active) |
| Clc1ccc(C(c2ccc(Cl)cc2)N2CCNCC2)cc1 | 2.02 µM (inactive) | 4.39 µM (inactive) | 2.47 µM (inactive) | 1.86 µM (inactive) | 2.89 µM (inactive) | 2.58 | 1.73 µM (inactive) | 2.02 µM (inactive) | 1.58 µM (inactive) | 5.13 µM (inactive) | 1.89 µM (inactive) | 2.03 µM (inactive) | 1.77 µM (inactive) | 1.77 µM (inactive) | 1.78 µM (inactive) | 1.96 µM (inactive) | 1.92 µM (inactive) | 1.83 µM (inactive) |
| OCCCNCc1ccncc1 | > 100 µM (inactive) | > 100 µM (inactive) | > 100 µM (inactive) | > 100 µM (inactive) | > 100 µM (inactive) | > 100 | > 100 µM (inactive) | > 100 µM (inactive) | > 100 µM (inactive) | > 100 µM (inactive) | > 100 µM (inactive) | > 100 µM (inactive) | > 100 µM (inactive) | > 100 µM (inactive) | > 100 µM (inactive) | > 100 µM (inactive) | > 100 µM (inactive) | > 100 µM (inactive) |
| CCCCCCCCCCOC1C(C(C)OCCCN(C)C)OC2OC3(CCCCC3)OC21 (stereo not drawn) | 15.8 µM (inactive) | 13.7 µM (inactive) | 17.1 µM (inactive) | 6.37 µM (inactive) | 16.3 µM (inactive) | 1.36 | 3.33 µM (inactive) | 14.5 µM (inactive) | 3.47 µM (inactive) | 12.4 µM (inactive) | 4.94 µM (inactive) | 2.41 µM (inactive) | 16.5 µM (inactive) | 14.3 µM (inactive) | 17.9 µM (inactive) | 3.48 µM (inactive) | 1.93 µM (inactive) | 4.32 µM (inactive) |
| CC1=C(CCC(C)CO)O[C@H]2C[C@H]3[C@@H]4CC[C@H]5C[C@@H](O)CC[C@]5(C)[C@H]4CC(=O)[C@]3(C)[C@@H]12 (stereo partly drawn) | 8.18 µM (inactive) | 27.7 µM (inactive) | 20.6 µM (inactive) | 2.94 µM (inactive) | 18.9 µM (inactive) | 17.1 | 10.6 µM (inactive) | 18 µM (inactive) | 10.4 µM (inactive) | 22.3 µM (inactive) | 15.6 µM (inactive) | 13.7 µM (inactive) | 20.7 µM (inactive) | 12.6 µM (inactive) | 9.62 µM (inactive) | 8.97 µM (inactive) | 12.7 µM (inactive) | 2.4 µM (inactive) |
| Cc1ccc(/N=N/c2ccc(O)c(CN(C)C)c2)cc1C | 15.1 µM (inactive) | 25.6 µM (inactive) | 29.5 µM (inactive) | 10.1 µM (inactive) | > 100 µM (inactive) | 17.3 | 33 µM (inactive) | 34.6 µM (inactive) | 13.9 µM (inactive) | 34.2 µM (inactive) | 38.9 µM (inactive) | 18.4 µM (inactive) | 34.4 µM (inactive) | 21.3 µM (inactive) | 10.6 µM (inactive) | 11.9 µM (inactive) | 10.5 µM (inactive) | 26.5 µM (inactive) |
| CCCCCCCC(=O)OC[n+]1cccc(-c2c(COC(=O)NC(C)C)c(COC(=O)NC(C)C)c3n2CCC3)c1 | > 100 µM (inactive) | 18.9 µM (inactive) | > 83.9 µM (inactive) | 24.3 µM (inactive) | 48 µM (inactive) | > 100 | 98.2 µM (inactive) | > 72.8 µM (inactive) | 83.6 µM (inactive) | > 100 µM (inactive) | > 100 µM (inactive) | > 100 µM (inactive) | 40 µM (inactive) | > 51.2 µM (inactive) | 40.4 µM (inactive) | > 87.7 µM (inactive) | 60.3 µM (inactive) | > 86.1 µM (inactive) |
| COc1ccc(Cc2nc3cc(Cl)ccc3o2)cc1 | 14.5 µM (inactive) | 31 µM (inactive) | 38.8 µM (inactive) | 28.4 µM (inactive) | 54.5 µM (inactive) | 26.9 | 32.2 µM (inactive) | 27.1 µM (inactive) | 34.4 µM (inactive) | 42.2 µM (inactive) | 35 µM (inactive) | 30.1 µM (inactive) | 33.3 µM (inactive) | 63 µM (inactive) | 21.2 µM (inactive) | 28.4 µM (inactive) | 23.5 µM (inactive) | 21.3 µM (inactive) |
| CC(=O)Nc1ccc2c3c(cc(O)c2c1)N(C(=O)CCCCCC(=O)N1CC(CCl)c2c1cc(O)c1cc(NC(C)=O)ccc21)CC3CCl (stereo not drawn) | 0.0109 µM (active) | 0.0123 µM (active) | < 0.01 µM (active) | 0.115 µM (active) | < 0.012 µM (active) | 0.377 | < 0.01 µM (active) | < 0.01 µM (active) | 0.0625 µM (active) | < 0.01 µM (active) | 0.0164 µM (active) | 0.0321 µM (active) | < 0.01 µM (active) | 0.0292 µM (active) | < 0.01 µM (active) | 0.016 µM (active) | < 0.01 µM (active) | 0.0296 µM (active) |
| Cn1ncc(NCCn2cnc3c2c(=O)n(C)c(=O)n3C)c(Cl)c1=O | > 100 µM (inactive) | > 100 µM (inactive) | > 100 µM (inactive) | > 100 µM (inactive) | > 100 µM (inactive) | > 100 | > 100 µM (inactive) | > 100 µM (inactive) | > 100 µM (inactive) | > 100 µM (inactive) | > 100 µM (inactive) | > 100 µM (inactive) | > 100 µM (inactive) | > 100 µM (inactive) | > 100 µM (inactive) | > 100 µM (inactive) | > 100 µM (inactive) | > 100 µM (inactive) |
| NC(=S)Nc1nc(=S)[nH]c2c1SC1=N/C(=C\c3ccco3)C(=O)N12 | > 82.8 µM (inactive) | > 82.4 µM (inactive) | > 100 µM (inactive) | 19.1 µM (inactive) | > 100 µM (inactive) | 48.8 | > 60.7 µM (inactive) | > 100 µM (inactive) | 28.4 µM (inactive) | > 100 µM (inactive) | > 100 µM (inactive) | > 60.4 µM (inactive) | > 100 µM (inactive) | 45.2 µM (inactive) | 27 µM (inactive) | > 100 µM (inactive) | 40.6 µM (inactive) | 29.3 µM (inactive) |
| COc1cc(C2C3=C(COC3=O)Oc3cc4c(cc32)OCO4)ccc1O (stereo not drawn) | 0.0728 µM (active) | 0.0445 µM (active) | 0.514 µM (active) | 0.182 µM (active) | 2.69 µM (inactive) | 0.476 | 0.439 µM (active) | 0.467 µM (active) | 0.148 µM (active) | 0.333 µM (active) | 0.11 µM (active) | 0.359 µM (active) | 0.481 µM (active) | 0.509 µM (active) | 0.0792 µM (active) | 0.225 µM (active) | 0.601 µM (active) | 0.372 µM (active) |
